Here are results for eleven compounds from US10906915B2, “Substituted pyrazoloazepin-4-ones and their use as phosphodiesterase inhibitors” (LEO Pharma A/S, priority 2016, dated 2021).

human PDE4D catalytic domain, sequence (Q08499 380-740 limits assumed): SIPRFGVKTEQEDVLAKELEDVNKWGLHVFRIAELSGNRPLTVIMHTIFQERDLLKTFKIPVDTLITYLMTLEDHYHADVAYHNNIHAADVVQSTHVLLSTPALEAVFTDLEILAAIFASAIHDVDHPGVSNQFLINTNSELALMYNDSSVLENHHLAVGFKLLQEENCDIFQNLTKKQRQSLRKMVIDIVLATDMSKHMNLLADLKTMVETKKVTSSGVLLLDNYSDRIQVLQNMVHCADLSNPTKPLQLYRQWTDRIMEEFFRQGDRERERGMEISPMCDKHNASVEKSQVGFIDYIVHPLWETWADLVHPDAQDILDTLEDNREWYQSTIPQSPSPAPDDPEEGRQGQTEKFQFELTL

This assay concerns the target human PDE4D catalytic domain (UniProt no. Q08499) (Homo sapiens (Human), UniProt Q08499). As to the kind of experiment: PDE4 assay (TR-FRET, FAM-cAMP cleavage). Format: biochemical. As to conditions: human PDE4D catalytic domain; molar concentration giving 50% inhibition of substrate cleavage; read-out: PDE4 IC50 range. A digest of the protocol:
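PDE4D catalytic domain ([…]) was incubated with unlabelled cAMP plus FAM-cAMP and titrated compound, stopped with binding buffer of metal-ion nanoparticles and Tb donor. AMP generation read by TR-FRET; IC50 as 50% inhibition of cleavage versus controls, reported as nM ranges.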
In general terms: TR-FRET usually uses a lanthanide donor and a delayed reading to cut background.
For the compound `CCc1nn(CCCOC(=O)c2ccc(C)c(C(F)(F)F)c2)c2c1C(=O)NCC1(CCOCC1)C2` [Example 103, 3-(3-ethyl-4-oxo-spiro[6,8-dihydro-5H-pyrazolo[4,3-c]azepine-7,4′-tetrahydropyran]-1-yl)propyl 4-methyl-3-(trifluoromethyl)benzoate], the IC50 (usually the concentration that gives 50% inhibition) was below 100 nM.

As for `CCc1nn(CCCOC(=O)c2cccc(C(F)(F)F)c2C)c2c1C(=O)NCC1(CCOCC1)C2` [Example 104, 3-(3-ethyl-4-oxo-spiro[6,8-dihydro-5H-pyrazolo[4,3-c]azepine-7,4′-tetrahydropyran]-1-yl)propyl 2-methyl-3-(trifluoromethyl)benzoate], the IC50 was below 100 nM.

Take `CCc1nn(CCCOC(=O)c2cc(C(F)(F)F)ccc2C)c2c1C(=O)NCC1(CCOCC1)C2` [Example 105, 3-(3-ethyl-4-oxo-spiro[6,8-dihydro-5H-pyrazolo[4,3-c]azepine-7,4′-tetrahydropyran]-1-yl)propyl 2-methyl-5-(trifluoromethyl)benzoate]: the IC50 is below 100 nM.

Consider `CCc1nn(CCCOC(=O)c2cccc(F)c2C(F)(F)F)c2c1C(=O)NCC1(CCOCC1)C2` [Example 106, 3-(3-ethyl-4-oxo-spiro[6,8-dihydro-5H-pyrazolo[4,3-c]azepine-7,4′-tetrahydropyran]-1-yl)propyl 3-fluoro-2-(trifluoromethyl)benzoate], for which the IC50 is below 100 nM.

As to `CCc1nn(CCCOC(=O)c2c(F)cccc2C(F)(F)F)c2c1C(=O)NCC1(CCOCC1)C2` [Example 107, 3-(3-ethyl-4-oxo-spiro[6,8-dihydro-5H-pyrazolo[4,3-c]azepine-7,4′-tetrahydropyran]-1-yl)propyl 2-fluoro-6-(trifluoromethyl)benzoate], the IC50 was below 100 nM.

Regarding `CCc1nn(CCCOC(=O)c2cc(F)cc(C(F)(F)F)c2)c2c1C(=O)NCC1(CCOCC1)C2` [Example 108, 3-(3-ethyl-4-oxo-spiro[6,8-dihydro-5H-pyrazolo[4,3-c]azepine-7,4′-tetrahydropyran]-1-yl)propyl 3-fluoro-5-(trifluoromethyl)benzoate], the half-inhibitory concentration (IC50) is below 100 nM.

For `CCc1nn(CCCOC(=O)c2ccc(F)cc2C(F)(F)F)c2c1C(=O)NCC1(CCOCC1)C2` [Example 109, 3-(3-ethyl-4-oxo-spiro[6,8-dihydro-5H-pyrazolo[4,3-c]azepine-7,4′-tetrahydropyran]-1-yl)propyl 4-fluoro-2-(trifluoromethyl)benzoate], the IC50 is below 100 nM.

Consider `CCc1nn(CCCOC(=O)c2ccc(C(F)(F)F)c(F)c2)c2c1C(=O)NCC1(CCOCC1)C2` [Example 110, 3-(3-ethyl-4-oxo-spiro[6,8-dihydro-5H-pyrazolo[4,3-c]azepine-7,4′-tetrahydropyran]-1-yl)propyl 3-fluoro-4-(trifluoromethyl)benzoate], for which the IC50 is below 100 nM.

In the case of `CCc1nn(CCCOC(=O)c2ccc(F)c(C(F)(F)F)c2)c2c1C(=O)NCC1(CCOCC1)C2` [Example 111, 3-(3-ethyl-4-oxo-spiro[6,8-dihydro-5H-pyrazolo[4,3-c]azepine-7,4′-tetrahydropyran]-1-yl)propyl 4-fluoro-3-(trifluoromethyl)benzoate], the half-maximal inhibitory concentration (IC50) was below 100 nM.

In the case of `CCc1nn(CCCOC(=O)c2cc(C(F)(F)F)ccc2F)c2c1C(=O)NCC1(CCOCC1)C2` [Example 112, 3-(3-ethyl-4-oxo-spiro[6,8-dihydro-5H-pyrazolo[4,3-c]azepine-7,4′-tetrahydropyran]-1-yl)propyl 2-fluoro-5-(trifluoromethyl)benzoate], the IC50 is below 100 nM.

Take `CCc1nn(CCCOC(=O)c2ccc(C(F)(F)F)cc2F)c2c1C(=O)NCC1(CCOCC1)C2` [Example 113, 3-(3-ethyl-4-oxo-spiro[6,8-dihydro-5H-pyrazolo[4,3-c]azepine-7,4′-tetrahydropyran]-1-yl)propyl 2-fluoro-4-(trifluoromethyl)benzoate]: the half-inhibitory concentration (IC50) was below 100 nM.
